Measured values: paper PMC5218480 (PLoS ONE, 2017)

System: MV-4-11 cells
Experiment: Gene expression microarray analysis (Affymetrix PrimeView) and GSEA
Format: cell-based, human
Parameters: RFU PODN (11730768_x_at) / Fold change /veh PODN (11730768_x_at) / RFU LINC00158 (11744669_a_at) / Fold change /veh LINC00158 (11744669_a_at) / RFU DUSP10 (11751237_a_at) / Fold change /veh DUSP10 (11751237_a_at) / RFU ID3 (11757404_x_at) / Fold change /veh ID3 (11757404_x_at) / RFU PLEKHG5 (11737974_s_at) / Fold change /veh PLEKHG5 (11737974_s_at) / RFU LRRC4B (11730491_at) / Fold change /veh LRRC4B (11730491_at) / RFU GIMAP4 (11747438_a_at) / Fold change /veh GIMAP4 (11747438_a_at) / RFU KRT8 (11758183_x_at) / Fold change /veh KRT8 (11758183_x_at) / RFU CNN1 (11734310_a_at) / Fold change /veh CNN1 (11734310_a_at) / RFU VPS37D (11726825_at) / Fold change /veh VPS37D (11726825_at) / RFU C10orf10 (11716522_x_at) / Fold change /veh C10orf10 (11716522_x_at) / RFU KIR2DL2 /// KIR2DL4 /// KIR2DL5A /// KIR2DL5B /// KIR2DS1 /// KIR2DS2 /// KIR2DS3 /// KIR2DS4 /// KIR3DL3 /// KIR3DL3 /// KIR3DS1 (11738374_at) / Fold change /veh KIR2DL2 /// KIR2DL4 /// KIR2DL5A /// KIR2DL5B /// KIR2DS1 /// KIR2DS2 /// KIR2DS3 /// KIR2DS4 /// KIR3DL3 /// KIR3DL3 /// KIR3DS1 (11738374_at) / RFU C1QL1 (11718748_at) / Fold change /veh C1QL1 (11718748_at) / RFU TMPRSS4 (11747572_a_at) / Fold change /veh TMPRSS4 (11747572_a_at) / RFU HAMP (11756126_x_at) / Fold change /veh HAMP (11756126_x_at) / RFU RNFT2 (11725882_a_at) / Fold change /veh RNFT2 (11725882_a_at) / RFU NR4A2 (11747474_a_at) / Fold change /veh NR4A2 (11747474_a_at) / RFU ABCC12 (11746883_a_at) / Fold change /veh ABCC12 (11746883_a_at) / RFU TMEM136 (11760407_x_at) / Fold change /veh TMEM136 (11760407_x_at) / RFU CLDN22 /// WWC2 (11732394_at) / Fold change /veh CLDN22 /// WWC2 (11732394_at) / RFU HLA-DPB1 (11760878_x_at) / Fold change /veh HLA-DPB1 (11760878_x_at) / RFU SPINT1 (11716480_a_at) / Fold change /veh SPINT1 (11716480_a_at) / RFU GAP43 (11754022_s_at) / Fold change /veh GAP43 (11754022_s_at) / RFU A4GNT (11735810_at) / Fold change /veh A4GNT (11735810_at) / RFU PRB3 (11715151_x_at) / Fold change /veh PRB3 (11715151_x_at) / RFU TUBB4B (11761932_at) / Fold change /veh TUBB4B (11761932_at) / RFU CAPN14 (11732068_a_at) / Fold change /veh CAPN14 (11732068_a_at) / RFU TMCC2 (11721928_a_at) / Fold change /veh TMCC2 (11721928_a_at) / RFU IRGQ (11745062_a_at) / Fold change /veh IRGQ (11745062_a_at) / RFU FAM174B (11720279_a_at) / Fold change /veh FAM174B (11720279_a_at) / RFU TMPRSS4 (11748680_a_at) / Fold change /veh TMPRSS4 (11748680_a_at) / RFU FAM212B (11763350_a_at) / Fold change /veh FAM212B (11763350_a_at) / RFU PLEKHG5 (11743358_a_at) / Fold change /veh PLEKHG5 (11743358_a_at) / RFU ZSCAN30 (11745921_a_at) / Fold change /veh ZSCAN30 (11745921_a_at) / RFU CMKLR1 (11741424_a_at) / Fold change /veh CMKLR1 (11741424_a_at) / RFU LOC101060620 /// MAPK8IP1 (11723275_at) / Fold change /veh LOC101060620 /// MAPK8IP1 (11723275_at) / RFU SPTSSB (11747773_x_at) / Fold change /veh SPTSSB (11747773_x_at) / RFU PRSS12 (11739890_at) / Fold change /veh PRSS12 (11739890_at) / RFU BIN1 (11741810_x_at) / Fold change /veh BIN1 (11741810_x_at) / RFU WNT11 (11732464_a_at) / Fold change /veh WNT11 (11732464_a_at) / RFU C10orf10 (11716521_a_at) / Fold change /veh C10orf10 (11716521_a_at) / RFU C5orf56 (11738089_at) / Fold change /veh C5orf56 (11738089_at) / RFU CYB561 (11721691_x_at) / Fold change /veh CYB561 (11721691_x_at) / RFU ANKRD19P (11752326_a_at) / Fold change /veh ANKRD19P (11752326_a_at) / RFU OR2T12 /// OR2T33 /// OR2T8 (11738714_s_at) / Fold change /veh OR2T12 /// OR2T33 /// OR2T8 (11738714_s_at) / RFU VCAN (11748164_a_at) / Fold change /veh VCAN (11748164_a_at) / RFU JSRP1 (11732532_at) / Fold change /veh JSRP1 (11732532_at) / RFU KRTAP10-11 (11738290_x_at) / Fold change /veh KRTAP10-11 (11738290_x_at) / RFU MYO3A (11730013_a_at) / Fold change /veh MYO3A (11730013_a_at) / RFU EBF3 (11725865_a_at) / Fold change /veh EBF3 (11725865_a_at) / RFU CAMK2N1 (11719241_x_at) / Fold change /veh CAMK2N1 (11719241_x_at) / RFU C5orf56 (11738088_a_at) / Fold change /veh C5orf56 (11738088_a_at) / RFU OLFML3 (11715873_a_at) / Fold change /veh OLFML3 (11715873_a_at) / RFU LOC100653217 /// NTM (11731650_a_at) / Fold change /veh LOC100653217 /// NTM (11731650_a_at) / RFU MAPK11 (11762145_a_at) / Fold change /veh MAPK11 (11762145_a_at) / RFU FIZ1 (11724087_x_at) / Fold change /veh FIZ1 (11724087_x_at) / RFU OASL (11726364_x_at) / Fold change /veh OASL (11726364_x_at) / RFU SOX15 (11748057_x_at) / Fold change /veh SOX15 (11748057_x_at) / RFU CD79A (11719716_a_at) / Fold change /veh CD79A (11719716_a_at) / RFU HIST1H1D (11736915_at) / Fold change /veh HIST1H1D (11736915_at) / RFU CASKIN2 (11723855_a_at) / Fold change /veh CASKIN2 (11723855_a_at) / RFU LOC730098 (11760151_x_at) / Fold change /veh LOC730098 (11760151_x_at) / RFU OR4N2 (11742367_at) / Fold change /veh OR4N2 (11742367_at) / RFU PRRT2 (11749266_a_at) / Fold change /veh PRRT2 (11749266_a_at) / RFU SNX32 (11753110_a_at) / Fold change /veh SNX32 (11753110_a_at) / RFU CDHR5 (11726645_a_at) / Fold change /veh CDHR5 (11726645_a_at) / RFU RCAN1 (11760418_a_at) / Fold change /veh RCAN1 (11760418_a_at) / RFU FAM167A (11723789_a_at) / Fold change /veh FAM167A (11723789_a_at) / RFU FAM26E (11764081_at) / Fold change /veh FAM26E (11764081_at) / RFU ISYNA1 (11749810_s_at) / Fold change /veh ISYNA1 (11749810_s_at) / RFU ACY1 (11761880_at) / Fold change /veh ACY1 (11761880_at) / RFU 11764098_at / Fold change /veh 11764098_at / RFU SAMD14 (11745864_x_at) / Fold change /veh SAMD14 (11745864_x_at) / RFU NPB (11741838_a_at) / Fold change /veh NPB (11741838_a_at) / RFU TMPRSS6 (11731388_a_at) / Fold change /veh TMPRSS6 (11731388_a_at) / RFU KRTAP10-2 (11738614_at) / Fold change /veh KRTAP10-2 (11738614_at) / RFU ARHGAP8 /// PRR5-ARHGAP8 (11727945_x_at) / Fold change /veh ARHGAP8 /// PRR5-ARHGAP8 (11727945_x_at) / RFU KRTAP5-7 /// NADSYN1 (11734609_at) / Fold change /veh KRTAP5-7 /// NADSYN1 (11734609_at) / RFU RASL12 (11751679_a_at) / Fold change /veh RASL12 (11751679_a_at) / RFU CDKN2B (11736163_a_at) / Fold change /veh CDKN2B (11736163_a_at) / RFU PRF1 (11729649_at) / Fold change /veh PRF1 (11729649_at) / RFU, ZNF638 /// ZNF638-IT1 / Fold change vs veh, ZNF638 /// ZNF638-IT1 / RFU, PANK3 / Fold change vs veh, PANK3 / RFU, SH3YL1 / Fold change vs veh, SH3YL1 / RFU, ZEB2 / Fold change vs veh, ZEB2 / RFU, NRIP1 / Fold change vs veh, NRIP1 / RFU, PTTG1IP / Fold change vs veh, PTTG1IP / RFU, CAPN2 / Fold change vs veh, CAPN2 / RFU, MED14 / Fold change vs veh, MED14 / RFU, SNORA58 / Fold change vs veh, SNORA58 / RFU, C1orf63 / Fold change vs veh, C1orf63 / RFU, LRRFIP1 / Fold change vs veh, LRRFIP1 / RFU, NDUFAF7 / Fold change vs veh, NDUFAF7 / RFU, SLC12A2 / Fold change vs veh, SLC12A2 / RFU, IBTK / Fold change vs veh, IBTK / RFU, ESF1 / Fold change vs veh, ESF1 / Fold change vs veh, TMEM50B / RFU, TAOK1 / Fold change vs veh, TAOK1 / RFU, ACBD3 / Fold change vs veh, ACBD3 / RFU, TMA16 / Fold change vs veh, TMA16 / RFU, RWDD3 / Fold change vs veh, RWDD3 / RFU, BCAT1 / Fold change vs veh, BCAT1 / RFU, EDEM3 / Fold change vs veh, EDEM3 / RFU, TMEM33 / Fold change vs veh, TMEM33 / RFU, WDR75 / Fold change vs veh, WDR75 / RFU, AHCTF1 / Fold change vs veh, AHCTF1 / RFU, TFRC / Fold change vs veh, TFRC / RFU, ZDHHC17 / Fold change vs veh, ZDHHC17 / RFU, NOM1 / Fold change vs veh, NOM1 / RFU, ARL8B / Fold change vs veh, ARL8B / RFU, ZBTB11 / Fold change vs veh, ZBTB11 / RFU, TAMM41 / Fold change vs veh, TAMM41 / RFU, KIAA1704 /// LOC100996395 / Fold change vs veh, KIAA1704 /// LOC100996395 / RFU, ING1 / Fold change vs veh, ING1 / RFU, TRMT61B / Fold change vs veh, TRMT61B / RFU, FUBP3 / Fold change vs veh, FUBP3 / RFU, TP53 / Fold change vs veh, TP53 / RFU, TNKS2 / Fold change vs veh, TNKS2 / RFU, ZFP14 / Fold change vs veh, ZFP14 / RFU, ACTR2 / Fold change vs veh, ACTR2 / RFU, PPP3R1 / Fold change vs veh, PPP3R1 / RFU, PIK3R1 / Fold change vs veh, PIK3R1 / RFU, HNRNPA1 / Fold change vs veh, HNRNPA1 / RFU, RNF170 / Fold change vs veh, RNF170 / RFU, ZNF28 / Fold change vs veh, ZNF28 / RFU, RNGTT / Fold change vs veh, RNGTT / RFU, OGT / Fold change vs veh, OGT / RFU, BRD1 / Fold change vs veh, BRD1 / RFU, MARS / Fold change vs veh, MARS / RFU, ZNF655 / Fold change vs veh, ZNF655 / RFU, FAHD1 / Fold change vs veh, FAHD1 / RFU, BDP1 / Fold change vs veh, BDP1 / RFU, LRRCC1 / Fold change vs veh, LRRCC1 / RFU, ARID1A / Fold change vs veh, ARID1A / RFU, ZNF146 / Fold change vs veh, ZNF146 / RFU, ZNF330 / Fold change vs veh, ZNF330 / RFU, GPN3 / Fold change vs veh, GPN3 / RFU, C9orf123 / Fold change vs veh, C9orf123 / RFU, N4BP2L2 / Fold change vs veh, N4BP2L2 / RFU, ARFIP1 / Fold change vs veh, ARFIP1 / RFU, FAM179B / Fold change vs veh, FAM179B / RFU, BCL10 / Fold change vs veh, BCL10 / RFU, UHRF1BP1L / Fold change vs veh, UHRF1BP1L / RFU, BET1 / Fold change vs veh, BET1 / RFU, CNOT2 / Fold change vs veh, CNOT2 / RFU, ZNF268 / Fold change vs veh, ZNF268 / Fold change vs veh, ZNF507 / RFU, DGCR2 / Fold change vs veh, DGCR2 / RFU, WDSUB1 / Fold change vs veh, WDSUB1 / Fold change vs veh, HSP90B1 /// MIR3652 / RFU, ADSS / Fold change vs veh, ADSS / RFU, GK / Fold change vs veh, GK / RFU, ZNF148 / Fold change vs veh, ZNF148 / RFU, TAF9 / Fold change vs veh, TAF9 / RFU, SLC1A5 / Fold change vs veh, SLC1A5 / RFU, SLMO2 / Fold change vs veh, SLMO2 / RFU, ABCC4 / Fold change vs veh, ABCC4 / RFU, LOC101060439 /// RAP1B / Fold change vs veh, LOC101060439 /// RAP1B / RFU, RFX7 / Fold change vs veh, RFX7 / RFU, GTPBP10 / Fold change vs veh, GTPBP10 / RFU, CNEP1R1 / Fold change vs veh, CNEP1R1 / RFU, BIVM-ERCC5 /// ERCC5 / Fold change vs veh, BIVM-ERCC5 /// ERCC5 / RFU, ILF3 / Fold change vs veh, ILF3 / RFU 11762660_at / Fold change /veh 11762660_at / RFU VCAN (11757783_s_at) / Fold change /veh VCAN (11757783_s_at) / RFU DDX43 (11728927_at) / Fold change /veh DDX43 (11728927_at) / RFU KRT8 (11758188_x_at) / Fold change /veh KRT8 (11758188_x_at) / RFU NKD1 (11759106_at) / Fold change /veh NKD1 (11759106_at) / RFU SRD5A1 (11742802_a_at) / Fold change /veh SRD5A1 (11742802_a_at) / RFU TPSAB1 /// TPSB2 (11721975_s_at) / Fold change /veh TPSAB1 /// TPSB2 (11721975_s_at) / RFU GSTM3 (11746129_a_at) / Fold change /veh GSTM3 (11746129_a_at) / RFU IL23R (11737362_x_at) / Fold change /veh IL23R (11737362_x_at) / RFU TMEM51 (11727254_a_at) / Fold change /veh TMEM51 (11727254_a_at) / RFU PIWIL2 (11732686_x_at) / Fold change /veh PIWIL2 (11732686_x_at) / RFU ORM1 (11744905_x_at) / Fold change /veh ORM1 (11744905_x_at) / RFU CCDC152 (11743942_at) / Fold change /veh CCDC152 (11743942_at) / RFU ECM1 (11717891_a_at) / Fold change /veh ECM1 (11717891_a_at) / RFU IL23R (11748794_a_at) / Fold change /veh IL23R (11748794_a_at) / RFU TNFAIP8L3 (11732012_x_at) / Fold change /veh TNFAIP8L3 (11732012_x_at) / RFU MBOAT4 (11741988_at) / Fold change /veh MBOAT4 (11741988_at) / RFU 11764193_at / Fold change /veh 11764193_at / RFU TMEM53 (11763286_at) / Fold change /veh TMEM53 (11763286_at) / RFU MAGEB2 (11727129_at) / Fold change /veh MAGEB2 (11727129_at) / RFU TMEM200A (11744735_a_at) / Fold change /veh TMEM200A (11744735_a_at) / RFU CCDC152 (11751479_a_at) / Fold change /veh CCDC152 (11751479_a_at) / RFU FAM211A (11726209_a_at) / Fold change /veh FAM211A (11726209_a_at) / RFU RGS16 (11746705_a_at) / Fold change /veh RGS16 (11746705_a_at) / RFU VCAN (11755009_s_at) / Fold change /veh VCAN (11755009_s_at) / RFU RHOB (11743442_s_at) / Fold change /veh RHOB (11743442_s_at) / RFU RGS16 (11720943_a_at) / Fold change /veh RGS16 (11720943_a_at) / RFU RGS16 (11720944_at) / Fold change /veh RGS16 (11720944_at) / RFU, VPS4B / Fold change vs veh, VPS4B / RFU, CREB1 / Fold change vs veh, CREB1 / RFU, DNAJC13 / Fold change vs veh, DNAJC13 / RFU, GNAQ / Fold change vs veh, GNAQ / RFU, CDK5R1 / Fold change vs veh, CDK5R1 / RFU, ZRANB3 / Fold change vs veh, ZRANB3 / RFU, CUL4A / Fold change vs veh, CUL4A / RFU, CCNY / Fold change vs veh, CCNY / RFU, UFL1 / Fold change vs veh, UFL1 / RFU, COG3 / Fold change vs veh, COG3 / RFU, DIAPH2 / Fold change vs veh, DIAPH2 / RFU, SKA2 / Fold change vs veh, SKA2 / RFU, AFF3 / Fold change vs veh, AFF3 / RFU, LMF1 / Fold change vs veh, LMF1 / RFU, IPO11 / Fold change vs veh, IPO11 / RFU, DFFB / Fold change vs veh, DFFB / RFU, FOXP1 / Fold change vs veh, FOXP1 / RFU, CARD8 / Fold change vs veh, CARD8 / RFU, STRN3 / Fold change vs veh, STRN3 / RFU, ADK / Fold change vs veh, ADK / RFU, RASSF2 / Fold change vs veh, RASSF2 / RFU, WIPF1 / Fold change vs veh, WIPF1 / RFU, LARP1B / Fold change vs veh, LARP1B / RFU, RASA1 / Fold change vs veh, RASA1 / RFU, RB1 / Fold change vs veh, RB1 / RFU, PPFIA1 / Fold change vs veh, PPFIA1 / RFU, MAT2A / Fold change vs veh, MAT2A / RFU, CCT5 / Fold change vs veh, CCT5 / RFU, WDR92 / Fold change vs veh, WDR92 / RFU, CUX1 / Fold change vs veh, CUX1 / RFU, TTC7A / Fold change vs veh, TTC7A / RFU, TMEM135 / Fold change vs veh, TMEM135 / RFU, DEPTOR / Fold change vs veh, DEPTOR / RFU, CPM / Fold change vs veh, CPM / RFU, DNAJB6 / Fold change vs veh, DNAJB6 / RFU, CACNA2D3 / Fold change vs veh, CACNA2D3 / RFU, DTX4 / Fold change vs veh, DTX4 / RFU, TFCP2 / Fold change vs veh, TFCP2 / RFU, GMCL1 /// GMCL1P1 / Fold change vs veh, GMCL1 /// GMCL1P1 / RFU, AEBP2 / Fold change vs veh, AEBP2 / RFU, SNHG1 /// SNORD22 /// SNORD25 /// SNORD26 /// SNORD27 /// SNORD28 /// SNORD29 /// SNORD31 / Fold change vs veh, SNHG1 /// SNORD22 /// SNORD25 /// SNORD26 /// SNORD27 /// SNORD28 /// SNORD29 /// SNORD31 / Fold change (Aza/veh), C12orf56 (ProbeSet 11735607_a_at) / Fold change (ACY-1035/veh), C12orf56 (ProbeSet 11735607_a_at) / Fold change (Aza/veh), FGFR1OP (ProbeSet 11751329_s_at) / Fold change (ACY-1035/veh), FGFR1OP (ProbeSet 11751329_s_at) / Fold change (Aza/veh), VPS36 (ProbeSet 11739960_a_at) / Fold change (ACY-1035/veh), VPS36 (ProbeSet 11739960_a_at) / RFU SYPL1 (11715823_x_at) / Fold change /veh SYPL1 (11715823_x_at) / RFU IGFBP7 (11715501_s_at) / Fold change /veh IGFBP7 (11715501_s_at) / RFU REEP3 (11722064_at) / Fold change /veh REEP3 (11722064_at) / RFU IGLL1 (11728026_x_at) / Fold change /veh IGLL1 (11728026_x_at): dose or concentration left out as unconfirmed
Details: ProbeSet 11719632_a_at; LIST B

## Nc1ccc(-c2cccs2)cc1NC(=O)c1ccc2c(c1)cc(C1CC1)n2CCN1CCOCC1 [ACY-1035]
  Fold change vs veh, ABCC4: 0.87
